# Molecular target: T1, SIRT1 (Homo sapiens, UniProt Q96EB6)
# T1 sequence (Q96EB6 1-747): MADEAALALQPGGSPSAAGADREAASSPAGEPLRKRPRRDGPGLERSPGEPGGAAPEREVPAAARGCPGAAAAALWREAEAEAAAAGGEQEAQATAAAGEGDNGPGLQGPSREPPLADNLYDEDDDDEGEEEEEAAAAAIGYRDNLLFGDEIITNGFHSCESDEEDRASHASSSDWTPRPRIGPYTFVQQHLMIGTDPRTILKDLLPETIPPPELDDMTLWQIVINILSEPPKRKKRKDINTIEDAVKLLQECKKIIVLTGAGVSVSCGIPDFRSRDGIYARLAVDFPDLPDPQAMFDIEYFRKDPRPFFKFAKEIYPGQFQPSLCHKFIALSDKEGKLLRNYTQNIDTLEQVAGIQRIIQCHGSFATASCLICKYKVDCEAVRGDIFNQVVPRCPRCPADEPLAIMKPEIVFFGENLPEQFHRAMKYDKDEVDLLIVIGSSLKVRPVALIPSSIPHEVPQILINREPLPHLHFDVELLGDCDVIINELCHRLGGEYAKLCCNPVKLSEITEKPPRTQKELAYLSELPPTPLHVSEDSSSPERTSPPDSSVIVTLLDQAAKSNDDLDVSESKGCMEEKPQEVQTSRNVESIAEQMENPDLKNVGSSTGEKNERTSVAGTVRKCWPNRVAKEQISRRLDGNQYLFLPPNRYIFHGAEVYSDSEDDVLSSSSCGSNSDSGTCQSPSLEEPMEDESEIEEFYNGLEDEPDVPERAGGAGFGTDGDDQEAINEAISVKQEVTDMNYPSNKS
# Assay: Trp mass spectrometry assay of SIRT1 activation
# Assay type: biochemical
# Details: Trp peptide Ac-R-H-K-K(Ac)-W-NH2 0.5 μM, 120 μM βNAD+, 10 nM SIRT1, 25 min, 25° C.
SMILES,"TRP Activity (EC1.5, concentration of compound required to increase SIRT1 activity by 50% over control)",TRP MAX RESP (percent maximum fold activation relative to control)
"O=C(NCC(F)(F)F)c1ncc2c(n1)N(C(=O)Nc1ccccn1)[C@H]1CCCN2C1 [Example 62, (9S)—N10-(pyridin-2-yl)-N2-(2,2,2-trifluoroethyl)-8,9-dihydro-6H-5,9-methanopyrimido[4,5-b][1,4]diazocine-2,10(7H)-dicarboxamide]",A (EC1.5<1 μM),A (Fold activation ≥150%)
"C[C@@H](NC(=O)c1ncc2c(n1)N(C(=O)Nc1ccccn1)[C@H]1CCCN2C1)C(F)(F)F [Example 63, (9S)—N10-(pyridin-2-yl)-N2-((R)-1,1,1-trifluoropropan-2-yl)-8,9-dihydro-6H-5,9-methanopyrimido[4,5-b][1,4]diazocine-2,10(7H)-dicarboxamide]",A (EC1.5<1 μM),A (Fold activation ≥150%)
"C[C@@H](NC(=O)c1ncc2c(n1)N(C(=O)Nc1cc(OC[C@H](O)CO)ccn1)[C@H]1CCCN2C1)C(F)(F)F [Example 64, (9S)—N10-(4-((R)-2,3-dihydroxypropoxy)pyridin-2-yl)-N2-((R)-1,1,1-trifluoropropan-2-yl)-8,9-dihydro-6H-5,9-methanopyrimido[4,5-b][1,4]diazocine-2,10(7H)-dicarboxamide]",A (EC1.5<1 μM),A (Fold activation ≥150%)
"Cc1ccc2c(NC(=O)N3c4nc(C(=O)NCC(F)(F)F)ncc4N4CCC[C@H]3C4)n[nH]c2n1 [Example 65, (9S)—N10-(6-methyl-1H-pyrazolo[3,4-b]pyridin-3-yl)-N2-(2,2,2-trifluoroethyl)-8,9-dihydro-6H-5,9-methanopyrimido[4,5-b][1,4]diazocine-2,10(7H)-dicarboxamide]",B (EC1.5 1-25 μM),A (Fold activation ≥150%)
"Cc1nc(C(=O)N[C@H](C)C(F)(F)F)nc2c1N1CCC[C@@H](C1)N2C(=O)Nc1cc(OC[C@H](O)CO)ccn1 [Example 67, (9S)—N10-(4-((R)-2,3-dihydroxypropoxy)pyridin-2-yl)-4-methyl-N2-((R)-1,1,1-trifluoropropan-2-yl)-8,9-dihydro-6H-5,9-methanopyrimido[4,5-b][1,4]diazocine-2,10(7H)-dicarboxamide]",A (EC1.5<1 μM),A (Fold activation ≥150%)
C[C@@H](NC(=O)c1ncc2c(n1)N(C(=O)Nc1cnc(OC[C@H](O)CO)cn1)[C@H]1CCCN2C1)C(F)(F)F [Example 69],B (EC1.5 1-25 μM),A (Fold activation ≥150%)
"Cc1ncc(-c2ccnc(NC(=O)N3c4nc(C(=O)N[C@H](C)C(F)(F)F)ncc4N4CCC[C@H]3C4)c2)o1 [Example 70, (9S)—N10-(4-(2-methyloxazol-5-yl)pyridin-2-yl)-N2-((R)-1,1,1-trifluoropropan-2-yl)-8,9-dihydro-6H-5,9-methanopyrimido[4,5-b][1,4]diazocine-2,10(7H)-dicarboxamide]",A (EC1.5<1 μM),A (Fold activation ≥150%)
"Cc1ncc(-c2ccnc(NC(=O)N3c4nc(C(=O)N[C@H](C)C(F)(F)F)nc(C)c4N4CCC[C@H]3C4)c2)o1 [Example 71, (9S)-4-methyl-N10-(4-(2-methyloxazol-5-yl)pyridin-2-yl)-N2-((R)-1,1,1-trifluoropropan-2-yl)-8,9-dihydro-6H-5,9-methanopyrimido[4,5-b][1,4]diazocine-2,10(7H)-dicarboxamide]",A (EC1.5<1 μM),A (Fold activation ≥150%)
"Cc1ccc2c(NC(=O)N3c4nc(C(=O)N[C@H](C)C(F)(F)F)ncc4N4CCC[C@H]3C4)n[nH]c2n1 [Example 72, (9S)—N10-(6-methyl-1H-pyrazolo[3,4-b]pyridin-3-yl)-N2-((R)-1,1,1-trifluoropropan-2-yl)-8,9-dihydro-6H-5,9-methanopyrimido[4,5-b][1,4]diazocine-2,10(7H)-dicarboxamide]",A (EC1.5<1 μM),A (Fold activation ≥150%)
"Cc1ccc2c(NC(=O)N3c4nc(C(=O)N[C@H](C)C(F)(F)F)nc(C)c4N4CCC[C@H]3C4)n[nH]c2n1 [Example 73, (9S)-4-methyl-N10-(6-methyl-1H-pyrazolo[3,4-b]pyridin-3-yl)-N2-((R)-1,1,1-trifluoropropan-2-yl)-8,9-dihydro-6H-5,9-methanopyrimido[4,5-b][1,4]diazocine-2,10(7H)-dicarboxamide]",A (EC1.5<1 μM),A (Fold activation ≥150%)
"Cc1nc(C(=O)N[C@H](C)C(F)(F)F)nc2c1N1CCC[C@@H](C1)N2C(=O)Nc1ccc(OC[C@@H](O)CO)nn1 [Example 74, (9S)—N10-(6-((S)-2,3-dihydroxypropoxy)pyridazin-3-yl)-4-methyl-N2-((R)-1,1,1-trifluoropropan-2-yl)-8,9-dihydro-6H-5,9-methanopyrimido[4,5-b][1,4]diazocine-2,10(7H)-dicarboxamide]",B (EC1.5 1-25 μM),A (Fold activation ≥150%)
"C[C@@H](NC(=O)c1ncc2c(n1)N(C(=O)Nc1cc(OC[C@@H](O)CO)ncn1)[C@H]1CCCN2C1)C(F)(F)F [Example 75, (9S)—N10-(6-((S)-2,3-dihydroxypropoxy)pyrimidin-4-yl)-N2-((R)-1,1,1-trifluoropropan-2-yl)-8,9-dihydro-6H-5,9-methanopyrimido[4,5-b][1,4]diazocine-2,10(7H)-dicarboxamide]",B (EC1.5 1-25 μM),A (Fold activation ≥150%)
"C[C@@H](NC(=O)c1ncc2c(n1)N(C(=O)Nc1nccc(OC[C@@H](O)CO)n1)[C@H]1CCCN2C1)C(F)(F)F [Example 76, (9S)—N10-(4-((S)-2,3-dihydroxypropoxy)pyrimidin-2-yl)-N2-((R)-1,1,1-trifluoropropan-2-yl)-8,9-dihydro-6H-5,9-methanopyrimido[4,5-b][1,4]diazocine-2,10(7H)-dicarboxamide]",B (EC1.5 1-25 μM),A (Fold activation ≥150%)
"C[C@@H](NC(=O)c1ncc2c(n1)N(C(=O)Nc1cc(OC[C@H](O)CO)ncn1)[C@H]1CCCN2C1)C(F)(F)F [Example 77, (9S)—N10-(6-((R)-2,3-dihydroxypropoxy)pyrimidin-4-yl)-N2-((R)-1,1,1-trifluoropropan-2-yl)-8,9-dihydro-6H-5,9-methanopyrimido[4,5-b][1,4]diazocine-2,10(7H)-dicarboxamide]",B (EC1.5 1-25 μM),A (Fold activation ≥150%)
"C[C@@H](NC(=O)c1ncc2c(n1)N(C(=O)Nc1cccc(OC[C@H](O)CO)n1)[C@H]1CCCN2C1)C(F)(F)F [Example 78, (9S)—N10-(6-((R)-2,3-dihydroxypropoxy)pyridin-2-yl)-N2-((R)-1,1,1-trifluoropropan-2-yl)-8,9-dihydro-6H-5,9-methanopyrimido[4,5-b][1,4]diazocine-2,10(7H)-dicarboxamide]",B (EC1.5 1-25 μM),A (Fold activation ≥150%)
"O=C(Nc1ccnc(OC[C@@H](O)CO)n1)N1c2nc(-c3cccc(C(F)(F)F)c3)ncc2N2CCC[C@H]1C2 [Example 79, (9S)—N-(2-((S)-2,3-dihydroxypropoxy)pyrimidin-4-yl)-2-(3-(trifluoromethyl)phenyl)-8,9-dihydro-6H-5,9-methanopyrimido[4,5-b][1,4]diazocine-10(7H)-carboxamide]",A (EC1.5<1 μM),A (Fold activation ≥150%)
"O=C(Nc1cc(OC[C@H](O)CO)ccn1)N1c2nc(-c3cccc(C(F)(F)F)c3)ncc2N2CCC[C@H]1C2 [Example 80, (9S)—N-(4-((R)-2,3-dihydroxypropoxy)pyridin-2-yl)-2-(3-(trifluoromethyl)phenyl)-8,9-dihydro-6H-5,9-methanopyrimido[4,5-b][1,4]diazocine-10(7H)-carboxamide]",A (EC1.5<1 μM),A (Fold activation ≥150%)

# Reference: patent US20180319810A1, “SUBSTITUTED BRIDGED UREA ANALOGS AS SIRTUIN MODULATORS” (GlaxoSmithKline Intellectual Property (No.2) Limited, priority 2014, published 2018)
